Literature values, collected in patent US20120142645A1, “NEUROACTIVE STEROID COMPOSITIONS AND METHODS OF USE FOR LOWERING CHOLESTEROL” (priority 2009, published 2012).

System: acute moderate to severe traumatic brain injury
Settings: intravenous for three days; Wright et al., 2007; cited from earlier work

CC(=O)[C@H]1CC[C@H]2[C@@H]3CCC4=CC(=O)CC[C@]4(C)[C@H]3CC[C@]12C [progesterone]
Reduction of 30-day mortality rates: over 50%
